Laboratory results published in EP4772634A1, “DOUBLE-STRANDED RNA TARGETING COAGULATION FACTOR XI” (Chia Tai Tianqing Pharmaceutical Group Co., Ltd., priority 2023, dated 2025).

System: activated partial thromboplastin time (APTT)
Assay: In vivo activity in cynomolgus monkeys, activated partial thromboplastin time in plasma
Details: cynomolgus monkey plasma, subcutaneous once, 14 mg/kg (second row, dose by order of Table 17)
Protocol: On day 7 before administration, female cynomolgus monkeys weighing 2-4 kg were fasted overnight, and about 1 mL of blood was collected from the femoral vein. Plasma was collected by centrifugation. FXI protein (Human Coagulation Factor XI ELISAkit, Thermo, Cat. No. EH118RB), FXI activity (coagulation factor XI assay kit, Stago, Cat. No. 00723), and APTT (activated partial thromboplastin time assay kit, Stago, Cat. No. 00595) were measured. The monkeys were evenly divided into groups based on these indicators. On day 0, the dsRNA ligand conjugates of the present application (TD02M02L01, etc.) were injected. On day 0, day 3, day 7, day 14, day 21, day 28, day 37, day 54, and day 68, plasma was collected to measure plasma FXI protein, FXI activity, and activated partial thromboplastin time (APTT).
The activated partial thromboplastin time prolongation rate was calculated according to the following equation: [formula]
The content of the coagulation factor XI protein, the FXI activity, and the activated partial thromboplastin time in animal plasma were measured before and on day 0, day 3, day 7, day 14, day 21, day 28, day 37, day 54, and day 68 after the subcutaneous administration of the dsRNA ligand conjugates of the present application at doses of 4.2 mg/kg and 14 mg/kg to cynomolgus monkeys (Table 17). […] Table 17. In vivo experimental design

TD02M02L01: dsRNA ligand conjugate: TD02M02 with L01 (GalNAc) ligand at 3' end of sense strand SEQ ID NO 35; antisense SEQ ID NO 36 (sense GGATGATTTTCTTATATCA; antisense TGATATAAGAAAATCATCCTG; GalNAc L01 ligand at sense 3' end, 2'-OMe/2'-F, pattern not given here)
Relative prolongation rate (%) of APTT (D3): 6.0% | Relative prolongation rate (%) of APTT (D7): 25.2% | Relative prolongation rate (%) of APTT (D14): 60.9% | Relative prolongation rate (%) of APTT (D21): 116.0% | Relative prolongation rate (%) of APTT (D28): 70.6% | Relative prolongation rate (%) of APTT (D37): 100.3% | Relative prolongation rate (%) of APTT (D54): 124.4% | Relative prolongation rate (%) of APTT (D68): 132.4%
